Common to all, as to experiment: Eurofins kinase profiling
Common to all, as to assay type: biochemical

One assay has as its target T1, ALK(h) (Homo sapiens, UniProt Q9UM73).
T1 construct: purchased Eurofins KinaseProfiler
The following applies: for remaining activity at 1 µM: read-out: residual kinase activity ALK(h). In short, it runs like this: (§1)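 Panel of 110 assays under standard conditions; these protein kinases were tested in the radiometric KinaseProfiler assay at a single 1 µM compound concentration.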

The target of the next assay is T2, ATR/ATRIP(h) (Homo sapiens, UniProt Q13535).
T2 construct: purchased Eurofins KinaseProfiler
T2 sequence (Q13535 whole entry): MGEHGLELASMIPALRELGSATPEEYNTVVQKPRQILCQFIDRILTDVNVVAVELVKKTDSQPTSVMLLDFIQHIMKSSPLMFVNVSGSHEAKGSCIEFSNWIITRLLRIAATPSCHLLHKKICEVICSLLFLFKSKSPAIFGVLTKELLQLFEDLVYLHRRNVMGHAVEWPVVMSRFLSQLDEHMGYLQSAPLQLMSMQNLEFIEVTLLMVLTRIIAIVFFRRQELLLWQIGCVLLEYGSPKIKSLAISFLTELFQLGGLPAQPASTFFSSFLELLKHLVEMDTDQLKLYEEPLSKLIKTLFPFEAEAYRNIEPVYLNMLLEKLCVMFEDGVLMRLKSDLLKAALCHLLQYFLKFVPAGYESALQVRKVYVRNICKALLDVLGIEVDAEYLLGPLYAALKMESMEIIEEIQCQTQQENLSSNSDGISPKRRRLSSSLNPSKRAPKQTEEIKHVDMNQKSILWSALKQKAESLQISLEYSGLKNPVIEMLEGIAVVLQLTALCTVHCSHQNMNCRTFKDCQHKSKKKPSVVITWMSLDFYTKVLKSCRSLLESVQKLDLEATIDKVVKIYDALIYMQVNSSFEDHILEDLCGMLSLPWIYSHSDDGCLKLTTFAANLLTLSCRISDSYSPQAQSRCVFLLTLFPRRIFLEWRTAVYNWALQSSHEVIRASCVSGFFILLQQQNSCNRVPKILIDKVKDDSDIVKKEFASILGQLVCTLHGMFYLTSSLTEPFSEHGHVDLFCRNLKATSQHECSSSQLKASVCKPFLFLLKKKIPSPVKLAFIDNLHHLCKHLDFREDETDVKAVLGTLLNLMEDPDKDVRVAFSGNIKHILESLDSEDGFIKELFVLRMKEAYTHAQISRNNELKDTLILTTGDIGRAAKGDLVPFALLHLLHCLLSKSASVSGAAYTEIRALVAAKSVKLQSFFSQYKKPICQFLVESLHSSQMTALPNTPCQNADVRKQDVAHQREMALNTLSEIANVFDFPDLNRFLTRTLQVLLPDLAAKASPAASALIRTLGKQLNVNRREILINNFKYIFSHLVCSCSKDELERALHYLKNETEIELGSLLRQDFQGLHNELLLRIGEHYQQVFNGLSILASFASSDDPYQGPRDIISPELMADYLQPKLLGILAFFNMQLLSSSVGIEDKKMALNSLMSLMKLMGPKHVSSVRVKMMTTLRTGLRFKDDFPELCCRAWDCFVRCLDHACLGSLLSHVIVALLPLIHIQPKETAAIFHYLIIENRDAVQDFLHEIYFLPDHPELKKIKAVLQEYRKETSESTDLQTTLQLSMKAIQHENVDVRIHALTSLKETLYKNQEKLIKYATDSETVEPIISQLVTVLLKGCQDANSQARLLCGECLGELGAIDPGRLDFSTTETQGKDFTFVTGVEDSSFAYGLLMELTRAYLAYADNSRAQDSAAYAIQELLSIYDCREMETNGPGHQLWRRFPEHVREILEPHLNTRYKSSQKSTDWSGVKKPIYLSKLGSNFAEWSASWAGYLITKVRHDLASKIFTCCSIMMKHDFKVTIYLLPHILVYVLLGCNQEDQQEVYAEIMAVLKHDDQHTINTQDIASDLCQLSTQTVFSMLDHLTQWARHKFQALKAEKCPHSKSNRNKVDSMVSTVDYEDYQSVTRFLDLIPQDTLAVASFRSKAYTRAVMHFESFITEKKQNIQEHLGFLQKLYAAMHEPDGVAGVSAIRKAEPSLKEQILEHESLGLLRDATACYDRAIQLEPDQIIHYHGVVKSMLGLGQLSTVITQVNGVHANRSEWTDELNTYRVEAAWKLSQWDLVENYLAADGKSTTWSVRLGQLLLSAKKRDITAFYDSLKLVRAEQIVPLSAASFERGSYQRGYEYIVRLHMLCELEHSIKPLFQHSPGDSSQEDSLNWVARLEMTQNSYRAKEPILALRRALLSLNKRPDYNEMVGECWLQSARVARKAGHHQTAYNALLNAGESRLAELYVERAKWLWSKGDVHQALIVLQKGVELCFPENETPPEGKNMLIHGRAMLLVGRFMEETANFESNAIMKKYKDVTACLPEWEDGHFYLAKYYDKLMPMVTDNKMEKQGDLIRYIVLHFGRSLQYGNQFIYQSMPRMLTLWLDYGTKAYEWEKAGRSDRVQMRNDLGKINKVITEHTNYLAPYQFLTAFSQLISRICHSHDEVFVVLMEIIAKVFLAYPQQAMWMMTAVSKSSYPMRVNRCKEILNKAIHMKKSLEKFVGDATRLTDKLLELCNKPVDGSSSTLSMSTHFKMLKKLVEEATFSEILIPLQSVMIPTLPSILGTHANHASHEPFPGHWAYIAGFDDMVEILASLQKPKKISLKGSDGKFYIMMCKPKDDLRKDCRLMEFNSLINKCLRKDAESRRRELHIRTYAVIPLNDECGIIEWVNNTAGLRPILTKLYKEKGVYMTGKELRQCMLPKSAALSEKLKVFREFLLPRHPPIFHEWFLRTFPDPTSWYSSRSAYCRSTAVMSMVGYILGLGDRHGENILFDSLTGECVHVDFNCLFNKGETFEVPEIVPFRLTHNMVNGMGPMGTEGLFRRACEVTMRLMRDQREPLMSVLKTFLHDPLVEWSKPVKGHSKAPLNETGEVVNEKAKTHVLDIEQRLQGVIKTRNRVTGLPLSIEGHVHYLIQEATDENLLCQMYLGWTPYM
T2 sequence (Q8WXE1 whole entry partner): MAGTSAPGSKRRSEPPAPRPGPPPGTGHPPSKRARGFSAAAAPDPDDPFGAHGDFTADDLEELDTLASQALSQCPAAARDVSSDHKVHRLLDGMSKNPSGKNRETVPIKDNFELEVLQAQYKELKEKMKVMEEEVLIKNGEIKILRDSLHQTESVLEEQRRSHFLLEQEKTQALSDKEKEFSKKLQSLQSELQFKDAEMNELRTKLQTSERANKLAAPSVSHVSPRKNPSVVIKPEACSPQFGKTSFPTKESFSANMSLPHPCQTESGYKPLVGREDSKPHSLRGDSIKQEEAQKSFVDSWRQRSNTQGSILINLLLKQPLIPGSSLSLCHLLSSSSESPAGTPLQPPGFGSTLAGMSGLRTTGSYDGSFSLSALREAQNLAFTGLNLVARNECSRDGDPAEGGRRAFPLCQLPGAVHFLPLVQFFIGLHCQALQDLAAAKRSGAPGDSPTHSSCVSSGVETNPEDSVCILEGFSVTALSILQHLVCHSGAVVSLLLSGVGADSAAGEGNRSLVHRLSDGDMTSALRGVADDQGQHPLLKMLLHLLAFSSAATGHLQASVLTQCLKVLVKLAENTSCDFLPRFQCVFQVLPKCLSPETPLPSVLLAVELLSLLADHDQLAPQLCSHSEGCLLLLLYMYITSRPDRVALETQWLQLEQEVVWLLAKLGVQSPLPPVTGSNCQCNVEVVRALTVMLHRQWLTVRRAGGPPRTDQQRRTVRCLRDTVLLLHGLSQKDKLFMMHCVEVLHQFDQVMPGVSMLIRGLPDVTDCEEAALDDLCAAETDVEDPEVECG
The note with it: read-out: residual kinase activity ATR/ATRIP(h). In short, it runs like this: as §1

For the next assay, the target named is T3, Aurora-A(h) (Homo sapiens, UniProt O14965).
T3 construct: purchased Eurofins KinaseProfiler
T3 sequence (O14965 1-403): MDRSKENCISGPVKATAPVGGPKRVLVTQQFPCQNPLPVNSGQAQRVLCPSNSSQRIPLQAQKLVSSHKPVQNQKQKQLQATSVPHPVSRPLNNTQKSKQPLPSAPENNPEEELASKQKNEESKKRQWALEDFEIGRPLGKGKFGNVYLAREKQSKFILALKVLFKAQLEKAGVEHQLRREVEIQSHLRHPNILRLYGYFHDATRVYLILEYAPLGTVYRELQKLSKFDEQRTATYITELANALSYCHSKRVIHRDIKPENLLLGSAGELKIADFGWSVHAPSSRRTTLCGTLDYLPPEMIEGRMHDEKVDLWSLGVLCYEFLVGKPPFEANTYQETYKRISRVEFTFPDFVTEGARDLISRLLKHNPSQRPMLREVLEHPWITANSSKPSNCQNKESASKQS
The following applies: read-out: residual kinase activity Aurora-A(h). The procedure, abridged:
as §1

Another assay deals with T4, CDK5/p35(h) (Homo sapiens, UniProt Q00535).
T4 construct: purchased Eurofins KinaseProfiler
T4 sequence (Q00535 whole entry): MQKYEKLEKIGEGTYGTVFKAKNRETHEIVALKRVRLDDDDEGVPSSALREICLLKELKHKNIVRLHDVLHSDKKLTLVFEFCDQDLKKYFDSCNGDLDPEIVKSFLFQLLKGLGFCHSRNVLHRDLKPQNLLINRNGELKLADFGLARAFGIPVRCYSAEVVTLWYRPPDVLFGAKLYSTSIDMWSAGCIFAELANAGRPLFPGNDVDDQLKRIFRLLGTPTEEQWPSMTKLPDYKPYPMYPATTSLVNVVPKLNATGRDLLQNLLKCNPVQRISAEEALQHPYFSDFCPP
T4 sequence (Q15078 whole entry partner): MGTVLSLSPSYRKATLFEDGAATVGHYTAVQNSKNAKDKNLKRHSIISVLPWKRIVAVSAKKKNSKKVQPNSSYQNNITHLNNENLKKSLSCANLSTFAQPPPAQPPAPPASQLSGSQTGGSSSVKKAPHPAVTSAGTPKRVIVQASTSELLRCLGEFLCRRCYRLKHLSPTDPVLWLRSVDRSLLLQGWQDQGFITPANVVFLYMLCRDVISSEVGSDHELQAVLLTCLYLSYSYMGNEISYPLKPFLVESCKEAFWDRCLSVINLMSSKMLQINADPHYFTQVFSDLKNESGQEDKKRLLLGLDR
The note with it: read-out: residual kinase activity CDK5/p35(h). In short, it runs like this:
as §1

The next assay addresses T5, CK1γ3(h) (Homo sapiens, UniProt Q9Y6M4).
T5 construct: purchased Eurofins KinaseProfiler
The note with it: read-out: residual kinase activity CK1γ3(h). In short, it runs like this: as §1

A further assay addresses T6, DCAMKL3(h) (Homo sapiens, UniProt Q9C098).
T6 construct: purchased Eurofins KinaseProfiler
T6 sequence (Q9C098 1-648): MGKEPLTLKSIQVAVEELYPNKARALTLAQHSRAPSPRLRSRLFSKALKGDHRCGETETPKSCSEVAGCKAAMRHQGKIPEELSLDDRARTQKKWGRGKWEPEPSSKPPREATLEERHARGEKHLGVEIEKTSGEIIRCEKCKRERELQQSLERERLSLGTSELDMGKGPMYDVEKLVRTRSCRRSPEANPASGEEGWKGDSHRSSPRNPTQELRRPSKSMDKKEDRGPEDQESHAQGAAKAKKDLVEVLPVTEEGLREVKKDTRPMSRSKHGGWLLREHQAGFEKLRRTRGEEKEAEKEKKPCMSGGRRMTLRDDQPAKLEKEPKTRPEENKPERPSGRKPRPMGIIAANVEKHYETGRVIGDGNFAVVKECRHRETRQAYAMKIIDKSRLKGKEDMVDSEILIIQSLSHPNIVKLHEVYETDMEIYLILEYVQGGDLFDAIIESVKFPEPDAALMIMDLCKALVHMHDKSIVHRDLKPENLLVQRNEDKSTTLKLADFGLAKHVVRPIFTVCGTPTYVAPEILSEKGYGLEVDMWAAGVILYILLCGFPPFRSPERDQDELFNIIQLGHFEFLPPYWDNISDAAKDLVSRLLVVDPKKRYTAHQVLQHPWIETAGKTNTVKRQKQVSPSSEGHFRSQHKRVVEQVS
The following applies: read-out: residual kinase activity DCAMKL3(h). The procedure, abridged: as §1

For another assay, the target named is T7, FGFR2(h) (Homo sapiens, UniProt P21802).
T7 construct: purchased Eurofins KinaseProfiler
The following applies: read-out: residual kinase activity FGFR2(h). In short, it runs like this: as §1

For the next assay, the target named is T8, Fes(h) (Homo sapiens, UniProt P07332).
T8 construct: purchased Eurofins KinaseProfiler
The note with it: read-out: residual kinase activity Fes(h). In short, it runs like this:
as §1

For the next assay, the target named is T9, Flt4(h) (Homo sapiens, UniProt P35916).
T9 construct: purchased Eurofins KinaseProfiler
The following applies: read-out: residual kinase activity Flt4(h). The procedure, abridged: as §1

The target of a further assay is T10, IGF-1R(h) (Homo sapiens, UniProt P08069).
T10 construct: purchased Eurofins KinaseProfiler
The following applies: read-out: residual kinase activity IGF-1R(h). The procedure, abridged:
as §1

A further assay concerns the target T11, IR(h), activated (Homo sapiens, UniProt P06213).
T11 construct: purchased Eurofins KinaseProfiler
The note with it: 1 µM. In short, it runs like this: as §1

In assay [1] the target is T12, PI3 Kinase (p110a(E545K)/p85a)(h) (Homo sapiens, UniProt P42336, E545K).
T12 construct: purchased Eurofins KinaseProfiler
The note with it: read-out: residual kinase activity PI3 Kinase (p110a(E545K)/p85a)(h). The procedure, abridged: as §1

In a further assay the target is T13, Ret(h) (Homo sapiens, UniProt P07949).
T13 construct: purchased Eurofins KinaseProfiler
T13 sequence (P07949 29-1114): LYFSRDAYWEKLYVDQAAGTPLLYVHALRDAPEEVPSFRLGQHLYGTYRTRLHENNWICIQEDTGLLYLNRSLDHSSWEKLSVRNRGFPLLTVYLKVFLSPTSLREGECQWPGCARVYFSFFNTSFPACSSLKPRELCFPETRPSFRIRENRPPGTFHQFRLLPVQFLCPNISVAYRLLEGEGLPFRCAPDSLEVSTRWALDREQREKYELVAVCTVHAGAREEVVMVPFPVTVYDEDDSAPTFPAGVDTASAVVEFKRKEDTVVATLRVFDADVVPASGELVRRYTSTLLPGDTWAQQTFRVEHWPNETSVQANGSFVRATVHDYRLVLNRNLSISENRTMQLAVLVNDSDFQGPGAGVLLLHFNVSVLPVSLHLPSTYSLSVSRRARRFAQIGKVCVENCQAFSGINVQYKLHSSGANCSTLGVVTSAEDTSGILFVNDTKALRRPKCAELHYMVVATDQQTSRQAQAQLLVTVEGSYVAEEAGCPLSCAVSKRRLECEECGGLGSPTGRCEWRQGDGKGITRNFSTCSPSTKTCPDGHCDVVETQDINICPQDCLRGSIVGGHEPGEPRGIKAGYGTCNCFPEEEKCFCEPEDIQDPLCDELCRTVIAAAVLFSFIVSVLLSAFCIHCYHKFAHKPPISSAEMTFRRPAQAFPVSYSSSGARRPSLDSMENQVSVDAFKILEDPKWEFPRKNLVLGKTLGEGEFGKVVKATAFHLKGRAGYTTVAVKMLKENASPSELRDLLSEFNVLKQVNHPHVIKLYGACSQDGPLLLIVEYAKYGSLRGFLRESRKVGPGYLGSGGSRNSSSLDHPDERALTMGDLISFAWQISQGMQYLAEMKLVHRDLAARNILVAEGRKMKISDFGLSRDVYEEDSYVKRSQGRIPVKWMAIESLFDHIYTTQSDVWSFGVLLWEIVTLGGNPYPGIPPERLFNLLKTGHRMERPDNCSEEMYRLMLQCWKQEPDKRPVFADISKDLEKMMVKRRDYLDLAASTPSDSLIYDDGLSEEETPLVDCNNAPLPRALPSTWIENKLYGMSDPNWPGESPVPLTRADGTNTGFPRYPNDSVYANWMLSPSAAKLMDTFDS
The following applies: read-out: residual kinase activity Ret(h). The procedure, abridged: as §1

A further assay deals with T14, Snk(h) (Homo sapiens, UniProt Q9NYY3).
T14 construct: purchased Eurofins KinaseProfiler
The note with it: read-out: residual kinase activity Snk(h). In short, it runs like this:
as §1

The next assay deals with T15, ZIPK(h) (Homo sapiens, UniProt O43293).
T15 construct: purchased Eurofins KinaseProfiler
The note with it: read-out: residual kinase activity ZIPK(h). In short, it runs like this:
as §1

For a further assay, the target named is T16, p70S6K(h) (Homo sapiens, UniProt P23443).
T16 construct: purchased Eurofins KinaseProfiler
The following applies: read-out: residual kinase activity p70S6K(h). The procedure, abridged:
as §1

The record followed here is PMC10528299, “Targeting FAK/PYK2 with SJP1602 for Anti-Tumor Activity in Triple-Negative Breast Cancer” (Current Issues in Molecular Biology, 2023).

Structures are written as SMILES.

The term inhibition denotes how much of the control response was suppressed.

With `CONC(=O)c1ccccc1Nc1cc(Nc2cc(C)nn2C(C)C)ncc1Cl` [GSK2256098], the remaining activity at 1 µM worked out at 73% at ALK(h); 101% on ATR/ATRIP(h); 43% at Aurora-A(h); 94% on CDK5/p35(h); 95% at CK1γ3(h); 98% at DCAMKL3(h). Moreover, the remaining activity at 1 µM at FGFR2(h) was found to be 98%; at Fes(h), 49%; at Flt4(h), 67%; at IGF-1R(h), 115%; in assay [1], 93%; on Ret(h) it was 117%. Further, the remaining activity at 1 µM at Snk(h) amounted to 113%; on ZIPK(h) it was 93%; at p70S6K(h), 69%. Also, on IR(h), activated, the “residual kinase activity IR(h), activated” value amounted to 76.

The compound `CNC(=O)c1cccc(C)c1Nc1nc(Nc2ccc(N3CCN(C4C5CC6CC4CC(O)(C6)C5)CC3)cc2OC)ncc1C(F)(F)F` (stereo not shown) [SJP1602, 2-((2-((4-(4-((2s,5r)-5-hydroxyadamantan-2-yl)piperazin-1-yl)-2-methoxyphenyl)amino)-5-(trifluoromethyl)pyrimidin-4-yl)amino)-N,3-dimethylbenzamide] showed an inhibition at 1 µM on ALK(h) of 72%. Also, the remaining activity at 1 µM on ALK(h) was 28%; on ATR/ATRIP(h) it was 97%; at Aurora-A(h) it was 48%; on CDK5/p35(h) it was 84%; at CK1γ3(h), 88%; on DCAMKL3(h) it was 98%. Further, the remaining activity at 1 µM on FGFR2(h) stood at 90%; on Fes(h), 54%; on Flt4(h), 104%; on IGF-1R(h), 116%; in assay [1], 98%; at Ret(h), 111%. In addition, the remaining activity at 1 µM on Snk(h) turned out to be 105%; on ZIPK(h), 100%; at p70S6K(h) it was 124%. Also, the “residual kinase activity IR(h), activated” value at IR(h), activated is 61.

`CNC(=O)c1ccc(Nc2ncc(C(F)(F)F)c(NCc3nccnc3N(C)S(C)(=O)=O)n2)cc1` [VS-6063, Defactinib]: the remaining activity at 1 µM at ALK(h) turned out to be 96%; on ATR/ATRIP(h), 92%; at Aurora-A(h), 12%; on CDK5/p35(h), 10%; at CK1γ3(h) it was 84%; on DCAMKL3(h), 42%. The remaining activity at 1 µM on FGFR2(h) is 46%; on Fes(h), 7%; at Flt4(h), -3%; at IGF-1R(h) it was 55%; in assay [1] it was 100%; on Ret(h), 39%. Moreover, the figures for the remaining activity at 1 µM on Snk(h), on ZIPK(h) and at p70S6K(h) were 64%, 97% and 98%, respectively. The “residual kinase activity IR(h), activated” value at IR(h), activated is given as 30.
